# Assay results taken from patent publication US20120010186A1, “HETEROCYCLIC COMPOUNDS AS INHIBITORS OF STEAROYL-COENZYME A DELTA-9 DESATURASE” (MERCK FROSST CANADA LTD., priority 2009, published 2012).
# Target: T1, human SCD1 (hSCD-1) (Homo sapiens, UniProt O00767)
# T1 construct: made in house; host or cells: baculovirus/Sf9
# T1 sequence (O00767 1-359): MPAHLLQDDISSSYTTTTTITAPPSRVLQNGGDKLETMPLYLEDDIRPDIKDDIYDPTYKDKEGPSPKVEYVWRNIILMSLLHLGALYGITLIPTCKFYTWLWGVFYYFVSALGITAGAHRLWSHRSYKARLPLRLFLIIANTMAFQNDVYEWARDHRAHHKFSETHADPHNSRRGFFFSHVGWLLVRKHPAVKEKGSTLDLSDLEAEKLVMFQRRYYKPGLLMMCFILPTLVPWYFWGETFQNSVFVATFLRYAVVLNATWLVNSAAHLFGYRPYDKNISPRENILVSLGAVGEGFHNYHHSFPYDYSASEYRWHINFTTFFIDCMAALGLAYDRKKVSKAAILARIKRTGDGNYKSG
# Test: SCD enzyme activity assay, reconstituted human SCD1 (hSCD-1)
# Assay type: biochemical
# Procedure: The potency of compounds of formula I against the stearoyl-CoA desaturase was determined by measuring the conversion of radiolabeled stearoyl-CoA to oleoyl-CoA using rat liver microsome or human SCD1 (hSCD-1) following previously published procedures with some modifications (Joshi, et al., J. Lipid Res., 18: 32-36 (1977); Talamo, et al., Anal. Biochem, 29: 300-304 (1969)). Liver microsome was prepared from male Wistar or Sprague Dawley rats on a high carbohydrate diet for 3 days (LabDiet #5803, Purina). The livers were homogenized (1:10 w/v) in a buffer containing 250 mM sucrose, 1 mM EDTA, 5 mM DTT and 50 mM Tris-HCl (pH 7.5). After a 100,000×g centrifugation for 60 min, the liver microsome pellet was suspended in a buffer containing 100 mM sodium phosphate, 20% glycerol, 2 mM DTT, and stored at −78° C. Human SCD1 desaturase system was reconstituted using human SCD1 from a baculovirus/Sf9 expression system, cytochrome B5 and cytochrome B5 reductase. Typically, test compound in 2 μL DMSO was incubated for 15 min at room temperature with 180 μL of the SCD enzyme in a buffer containing 100 mM Tris-HCl (pH 7.5), ATP (5 mM), Coenzyme-A (0.1 mM), Triton X-100 (0.5 mM) and NADH (2 mM). The reaction was initiated by the addition of 20 μL of [^3H]-stearoyl-CoA (final concentration=2 μM, radioactivity concentration=1 μCi/mL). After 10 min, the reaction mixture (80 μL) was mixed with a calcium chloride/charcoal aqueous suspension (100 μL charcoal (10% w/v) plus 25 μL CaCl2 (2N). After centrifugation to precipitate the radioactive fatty acid species, tritiated water released from 9,10-[^3H]-stearoyl-CoA by the SCD enzyme was quantified on a scintillation counter.
row,Compound,IC50
1,O=C(O)Cn1nnc(-c2cnc(N3CC4(CCN(c5cc(F)ccc5Cl)CC4)C3)s2)n1,45 nM
2,O=C(O)Cn1nnc(-c2cnc(N3CCC4(CC3)CN(c3cc(F)ccc3Cl)C4)s2)n1,39 nM
3,O=C(O)Cn1nnc(-c2cnc(N3CC4CN(c5cc(Cl)cc(F)c5Cl)CC4C3)s2)n1 (centres unmarked),13 nM
4,O=C(O)Cn1nnc(-c2cnc(N3CCC4(CCN(c5ccccc5Cl)C4)C3)s2)n1 (centres unmarked),161 nM
5,O=C(O)Cn1nnc(-c2cnc(N3CC4CN(c5cc(OC(F)(F)F)ccc5Cl)CC4C3)s2)n1 (centres unmarked),10 nM
6,O=C(O)Cn1nnc(-c2cnc(N3CC4(C3)CN(c3cc(F)ccc3Cl)C4)s2)n1,11 nM

# The remaining lines, values ahead:
row,IC50,Compound
1,27 nM,O=C(O)Cn1nnc(-c2cc(N3CC4CN(c5cc(F)ccc5Cl)CC4C3)no2)n1 (centres unmarked)
2,13 nM,O=C(O)Cn1nnc(-c2cnc(N3CC4CN(c5cc(Cl)ccc5Cl)CC4C3)s2)n1 (centres unmarked)
3,14 nM,O=C(O)Cn1nnc(-c2cnc(N3CC4CN(c5cc(C(F)(F)F)ccc5Br)CC4C3)s2)n1 (centres unmarked)
4,12 nM,O=C(O)Cn1nnc(-c2cnc(N3CC4CN(c5cc(F)ccc5Cl)CC4C3)s2)n1 (centres unmarked)
5,77 nM,O=C(O)Cn1nnc(-c2cnc(N3CC4CN(c5cc(F)ccc5Br)CC4C3)nc2)n1 (centres unmarked)
